This is an account of results in ChEMBL document CHEMBL2331534, “Design, synthesis and biological evaluation of novel hybrid compounds of imidazole scaffold-based 2-benzylbenzofuran as potent anticancer agents” (Eur J Med Chem, 2013).

A value given as a limit tells only on which side of the number the result lay.

Common to all, as to format: functional, cell-based
One assay deals with A549. The assay is described as follows: Cytotoxicity against human A549 cells assessed as growth inhibition after 48 hrs by MTT assay. The note with it: A549, 48 h.
The subject of the next assay is SMMC-7721. Briefly: Cytotoxicity against human SMMC7721 cells assessed as growth inhibition after 48 hrs by MTT assay. The note with it: SMMC-7721, 48 h.
In the next assay the test system is HL-60. Briefly: Cytotoxicity against human HL60 cells assessed as growth inhibition after 48 hrs by MTT assay. Particulars: HL-60, 48 h. For orientation: Tetrazolium dyes change colour on reduction, which living cells bring about.
A further assay relates to MCF7. Briefly: Cytotoxicity against human MCF7 cells assessed as growth inhibition after 48 hrs by MTT assay. The note with it: MCF7, 48 h.
The test system of a further assay is SW480. Briefly: Cytotoxicity against human SW480 cells assessed as growth inhibition after 48 hrs by MTT assay. The note with it: SW480, 48 h.

A word on the IC50: it is the point on the concentration scale where inhibition reaches its midpoint. For the molecule `O=[N+]([O-])c1ccc(C[n+]2ccn(C(c3ccccc3)c3cc4ccccc4o3)c2)cc1` (stereo not given), the IC50 with A549, with SMMC-7721, in the assay on HL-60, with MCF7 and in the assay with SW480 was over 40 µM in each case.

Turning to `Cc1n(C(c2ccccc2)c2cc3ccccc3o2)cc[n+]1CC(=O)c1ccc(Br)cc1` (stereo not given), the IC50 in the assay with A549 stood at 26.1 µM; with SMMC-7721, 11.1 µM; in the assay with HL-60, 3.3 µM; in the assay on MCF7, 15.2 µM; in the assay on SW480, 14.5 µM.

As to `Cc1n(C(c2ccccc2)c2cc3ccccc3o2)cc[n+]1CC(=O)c1ccc(O)cc1` (stereo not given), the IC50 in the assay on A549, in the assay on SMMC-7721, in the assay on HL-60, in the assay with MCF7 and with SW480 was over 40 µM throughout.

As to `COc1ccc(C(=O)C[n+]2ccn(C(c3ccccc3)c3cc4ccccc4o3)c2C)cc1` (stereo not given), the 50% inhibitory concentration (IC50) worked out at 8 µM with A549; 5.29 µM with SMMC-7721; 1.65 µM with HL-60; 9.84 µM in the assay on MCF7; 14.4 µM in the assay on SW480.

Regarding `Cc1n(C(c2ccccc2)c2cc3ccccc3o2)cc[n+]1CC(=O)c1ccc2ccccc2c1` (stereo not given), the IC50 in the assay on A549 was 8.57 µM; with SMMC-7721, 4.29 µM; with HL-60, 1.85 µM; in the assay on MCF7, 2.24 µM; with SW480, 4.48 µM.

Turning to `C=CC[n+]1ccn(C(c2ccccc2)c2cc3ccccc3o2)c1CC` (stereo not given), the IC50 in the assay with A549, in the assay on SMMC-7721, in the assay on HL-60, in the assay with MCF7 and with SW480 was over 40 µM throughout.

On to `CCCC[n+]1ccn(C(c2ccccc2)c2cc3ccccc3o2)c1CC` (stereo not given), for which the IC50 in the assay on A549, with SMMC-7721, in the assay on HL-60, in the assay on MCF7 and in the assay with SW480 was over 40 µM in each case.

As for `CCc1n(C(c2ccccc2)c2cc3ccccc3o2)cc[n+]1Cc1ccccc1` (stereo not given), the IC50 in the assay with A549 came out at 6.52 µM; in the assay with SMMC-7721 it was 7.14 µM; in the assay on HL-60 it was 2.06 µM; with MCF7, 5.24 µM; in the assay with SW480, 3.75 µM.

Regarding `CCc1n(C(c2ccccc2)c2cc3ccccc3o2)cc[n+]1CC(=O)c1ccccc1` (stereo not given), the IC50 was 13.7 µM in the assay with A549; 10.6 µM with SMMC-7721; 2.64 µM in the assay with HL-60; 14 µM in the assay on MCF7; 19.1 µM in the assay on SW480.

`CCc1n(C(c2ccccc2)c2cc3ccccc3o2)cc[n+]1CC(=O)c1ccc(F)cc1` (stereo not given): the IC50 was 7.36 µM with A549; 10.9 µM in the assay with SMMC-7721; 2.38 µM in the assay on HL-60; 13.8 µM in the assay with MCF7; over 40 µM in the assay on SW480.

On to `CCc1n(C(c2ccccc2)c2cc3ccccc3o2)cc[n+]1CC(=O)c1ccc(Br)cc1` (stereo not given), for which the IC50 was found to be 14.1 µM with A549; 6.14 µM with SMMC-7721; 2.94 µM in the assay with HL-60; 9.5 µM in the assay with MCF7; 15.5 µM in the assay on SW480.

Regarding `CCc1n(C(c2ccccc2)c2cc3ccccc3o2)cc[n+]1CC(=O)c1ccc(O)cc1` (stereo not given), the IC50 in the assay with A549, in the assay on SMMC-7721, with HL-60, with MCF7 and in the assay with SW480 was over 40 µM each time.

With `CCc1n(C(c2ccccc2)c2cc3ccccc3o2)cc[n+]1CC(=O)c1ccc(OC)cc1` (stereo not given), the IC50 was found to be 5.43 µM in the assay with A549; 7.07 µM with SMMC-7721; 2.17 µM in the assay on HL-60; 9.5 µM in the assay with MCF7; 17.1 µM with SW480.

For `CCc1n(C(c2ccccc2)c2cc3ccccc3o2)cc[n+]1CC(=O)c1ccc2ccccc2c1` (stereo not given), the half-inhibitory concentration (IC50) in the assay on A549 came to 3.23 µM; in the assay with SMMC-7721, 4.48 µM; in the assay on HL-60, 1.86 µM; in the assay on MCF7, 4.2 µM; in the assay on SW480, 16.4 µM.

On to `C=CC[n+]1cn(C(c2ccccc2)c2cc3ccccc3o2)c2ccccc21` (stereo not given), for which the half-maximal inhibitory concentration (IC50) in the assay with A549, in the assay with SMMC-7721, in the assay with HL-60, with MCF7 and in the assay on SW480 was over 40 µM each time.

As for `CCCC[n+]1cn(C(c2ccccc2)c2cc3ccccc3o2)c2ccccc21` (stereo not given), the half-inhibitory concentration (IC50) in the assay on A549 stood at 12.3 µM; with SMMC-7721 it was 7.03 µM; with HL-60, 2.87 µM; in the assay on MCF7, 15.4 µM; in the assay on SW480, 29.3 µM.

`c1ccc(C[n+]2cn(C(c3ccccc3)c3cc4ccccc4o3)c3ccccc32)cc1` (stereo not given): the 50% inhibitory concentration (IC50) with A549 was 6.92 µM; with SMMC-7721 it was 3.63 µM; in the assay on HL-60, 1.05 µM; with MCF7, 9.16 µM; with SW480 it was 6.31 µM.

Regarding `O=[N+]([O-])c1ccc(C[n+]2cn(C(c3ccccc3)c3cc4ccccc4o3)c3ccccc32)cc1` (stereo not given), the IC50 with A549 is over 40 µM; in the assay on SMMC-7721 it was 11.5 µM; in the assay on HL-60 it was 11 µM; in the assay with MCF7 it was 16.4 µM; in the assay on SW480, 14 µM.

Turning to `O=C(C[n+]1cn(C(c2ccccc2)c2cc3ccccc3o2)c2ccccc21)c1ccccc1` (stereo not given), the IC50 was 14.4 µM in the assay on A549; 5.34 µM with SMMC-7721; 2.69 µM with HL-60; 9.59 µM in the assay with MCF7; 15.5 µM in the assay with SW480.

On to `O=C(C[n+]1cn(C(c2ccccc2)c2cc3ccccc3o2)c2ccccc21)c1ccc(F)cc1` (stereo not given), for which the concentration for half-maximal inhibition (IC50) in the assay on A549 worked out at 9.15 µM; in the assay with SMMC-7721 it was 3.98 µM; with HL-60, 2.1 µM; with MCF7, 12 µM; in the assay on SW480, 13.6 µM.

On to `O=C(C[n+]1cn(C(c2ccccc2)c2cc3ccccc3o2)c2ccccc21)c1ccc(Br)cc1` (stereo not given), for which the IC50 worked out at 4.76 µM with A549; 3.99 µM with SMMC-7721; 2.68 µM in the assay on HL-60; 3.35 µM in the assay on MCF7; 3.75 µM in the assay on SW480.

Consider `O=C(C[n+]1cn(C(c2ccccc2)c2cc3ccccc3o2)c2ccccc21)c1ccc(O)cc1` (stereo not given), for which the IC50 with A549, in the assay on SMMC-7721, with HL-60, in the assay with MCF7 and in the assay on SW480 was over 40 µM throughout.

`c1ccc(C(c2cc3ccccc3o2)n2cnc3ccccc32)cc1` (stereo not given): the half-inhibitory concentration (IC50) with A549, in the assay on SMMC-7721, in the assay on HL-60, in the assay on MCF7 and with SW480 was over 40 µM each time.

On to `C=CC[n+]1ccn(C(c2ccccc2)c2cc3ccccc3o2)c1` (stereo not given), for which the 50% inhibitory concentration (IC50) in the assay with A549, in the assay on SMMC-7721, with HL-60, in the assay with MCF7 and with SW480 was over 40 µM in each case.

Consider `CCCC[n+]1ccn(C(c2ccccc2)c2cc3ccccc3o2)c1` (stereo not given), for which the 50% inhibitory concentration (IC50) with A549, with SMMC-7721, in the assay on HL-60, with MCF7 and in the assay on SW480 was over 40 µM in each case.

Turning to `c1ccc(C[n+]2ccn(C(c3ccccc3)c3cc4ccccc4o3)c2)cc1` (stereo not given), the half-inhibitory concentration (IC50) with A549, with SMMC-7721, with HL-60, with MCF7 and with SW480 was over 40 µM each time.

Take `O=C(C[n+]1ccn(C(c2ccccc2)c2cc3ccccc3o2)c1)c1ccccc1` (stereo not given): the IC50 with A549, in the assay with SMMC-7721, in the assay on HL-60, with MCF7 and with SW480 was over 40 µM throughout.

Consider `O=C(C[n+]1ccn(C(c2ccccc2)c2cc3ccccc3o2)c1)c1ccc(F)cc1` (stereo not given), for which the concentration for half-maximal inhibition (IC50) with A549, in the assay with SMMC-7721, in the assay on HL-60, with MCF7 and in the assay with SW480 was over 40 µM in each case.

For `O=C(C[n+]1ccn(C(c2ccccc2)c2cc3ccccc3o2)c1)c1ccc(Br)cc1` (stereo not given), the IC50 with A549 was 15.5 µM; in the assay with SMMC-7721, 5.5 µM; with HL-60, 2.64 µM; in the assay with MCF7, 12 µM; in the assay with SW480 it was 15.5 µM.

`O=C(C[n+]1ccn(C(c2ccccc2)c2cc3ccccc3o2)c1)c1ccc(O)cc1` (stereo not given): the half-maximal inhibitory concentration (IC50) in the assay on A549, with SMMC-7721, in the assay with HL-60, in the assay on MCF7 and in the assay on SW480 was over 40 µM each time.

With `COc1ccc(C(=O)C[n+]2ccn(C(c3ccccc3)c3cc4ccccc4o3)c2)cc1` (stereo not given), the half-inhibitory concentration (IC50) in the assay with A549 turned out to be 14.6 µM; with SMMC-7721, 8.47 µM; in the assay on HL-60, 2.99 µM; in the assay on MCF7, 16.1 µM; with SW480 it was 15.4 µM.

For the molecule `O=C(C[n+]1ccn(C(c2ccccc2)c2cc3ccccc3o2)c1)c1ccc2ccccc2c1` (stereo not given), the IC50 in the assay with A549 was found to be 7.77 µM; with SMMC-7721 it was 3.47 µM; in the assay on HL-60 it was 1.93 µM; in the assay with MCF7, 3.12 µM; with SW480, 14.2 µM.

As to `C=CC[n+]1ccn(C(c2ccccc2)c2cc3ccccc3o2)c1C` (stereo not given), the IC50 with A549, in the assay on SMMC-7721, with HL-60, in the assay on MCF7 and in the assay with SW480 was over 40 µM each time.

For the molecule `CCCC[n+]1ccn(C(c2ccccc2)c2cc3ccccc3o2)c1C` (stereo not given), the IC50 in the assay on A549, with SMMC-7721, in the assay with HL-60, with MCF7 and with SW480 was over 40 µM in each case.

For `Cc1n(C(c2ccccc2)c2cc3ccccc3o2)cc[n+]1Cc1ccccc1` (stereo not given), the half-maximal inhibitory concentration (IC50) in the assay with A549, with SMMC-7721, with HL-60, with MCF7 and in the assay with SW480 was over 40 µM in each case.

Regarding `Cc1n(C(c2ccccc2)c2cc3ccccc3o2)cc[n+]1CC(=O)c1ccccc1` (stereo not given), the half-maximal inhibitory concentration (IC50) in the assay on A549 was 18.8 µM; in the assay with SMMC-7721 it was 14.8 µM; in the assay with HL-60, 3.17 µM; in the assay with MCF7, 10.2 µM; with SW480, over 40 µM.

For `Cc1n(C(c2ccccc2)c2cc3ccccc3o2)cc[n+]1CC(=O)c1ccc(F)cc1` (stereo not given), the IC50 with A549 was found to be 21.7 µM; in the assay with SMMC-7721, 14.5 µM; in the assay with HL-60 it was 4.7 µM; in the assay with MCF7, 10.7 µM; in the assay on SW480 it was 12.7 µM.
